Test results: PubChem BioAssay AID1259407 (Chemical Carcinogenesis Research Information System (CCRIS), 2018)
The source made the active and inactive calls. The rule behind the calls is not given here.

System: CCRIS mutagenicity, Ames/micronucleus/aberration tests
Experiment: CCRIS mutagenicity studies
[1] = Test System: AMES SALMONELLA TYPHIMURIUM, Strain/Indicator: TA100, Metabolic Activation: NONE, Method: STANDARD PLATE
[2] = Test System: AMES SALMONELLA TYPHIMURIUM, Strain/Indicator: TA1535, Metabolic Activation: NONE, Method: PREINCUBATION
[3] = Test System: AMES SALMONELLA TYPHIMURIUM, Strain/Indicator: TA1538, Metabolic Activation: NONE, Method: PREINCUBATION
[4] = Test System: AMES SALMONELLA TYPHIMURIUM, Strain/Indicator: TA98, Metabolic Activation: NONE, Method: STANDARD PLATE
[5] = Test System: AMES SALMONELLA TYPHIMURIUM, Strain/Indicator: TA98, Metabolic Activation: RAT, LIVER, S-9, AROCLOR 1254, Method: STANDARD PLATE
[6] = Test System: AMES SALMONELLA TYPHIMURIUM, Strain/Indicator: TA100, Metabolic Activation: RAT, LIVER, S-9, AROCLOR 1254, Method: STANDARD PLATE

## Nc1cccc2c1-c1ccccc1C2
Test System: AMES SALMONELLA TYPHIMURIUM, Strain/Indicator: TA98, Metabolic Activation: RAT, LIVER, S-9, AROCLOR 1254 (2 OR 4%), Method: STANDARD PLATE
  mutagenic call: active; positive
Test System: AMES SALMONELLA TYPHIMURIUM, Strain/Indicator: TA100, Metabolic Activation: RAT, LIVER, S-9, AROCLOR 1254 (2%), Method: STANDARD PLATE
  mutagenic call: active; positive
Test System: AMES SALMONELLA TYPHIMURIUM, Strain/Indicator: TA1535, Metabolic Activation: RAT, LIVER, S-9, AROCLOR 1254 (2%), Method: STANDARD PLATE
  mutagenic call: inactive; negative
Test System: AMES SALMONELLA TYPHIMURIUM, Strain/Indicator: TA1537, Metabolic Activation: RAT, LIVER, S-9, AROCLOR 1254 (2%), Method: STANDARD PLATE
  mutagenic call: inactive; negative

## O=Nc1nc[nH]c1-c1ccccc1
[1]
  mutagenic call: active; positive

## Nc1cc(Cl)c([N+](=O)[O-])cc1O
Test System: AMES SALMONELLA TYPHIMURIUM, Strain/Indicator: TA97, Metabolic Activation: HAMSTER, LIVER, S-9, AROCLOR 1254 (10%), Method: PREINCUBATION
  mutagenic call: active; positive
Test System: AMES SALMONELLA TYPHIMURIUM, Strain/Indicator: TA97, Metabolic Activation: NONE, Method: PREINCUBATION
  mutagenic call: active; positive
Test System: AMES SALMONELLA TYPHIMURIUM, Strain/Indicator: TA97, Metabolic Activation: RAT, LIVER, S-9, AROCLOR 1254 (10%), Method: PREINCUBATION
  mutagenic call: active; positive
Test System: AMES SALMONELLA TYPHIMURIUM, Strain/Indicator: TA98, Metabolic Activation: HAMSTER, LIVER, S-9, AROCLOR 1254 (10%), Method: PREINCUBATION
  mutagenic call: active; positive
Test System: AMES SALMONELLA TYPHIMURIUM, Strain/Indicator: TA98, Metabolic Activation: NONE, Method: PREINCUBATION
  mutagenic call: active; positive
Test System: AMES SALMONELLA TYPHIMURIUM, Strain/Indicator: TA98, Metabolic Activation: RAT, LIVER, S-9, AROCLOR 1254 (10%), Method: PREINCUBATION
  mutagenic call: active; positive
Test System: AMES SALMONELLA TYPHIMURIUM, Strain/Indicator: TA100, Metabolic Activation: HAMSTER, LIVER, S-9, AROCLOR 1254 (10%), Method: PREINCUBATION
  mutagenic call: active; positive
Test System: AMES SALMONELLA TYPHIMURIUM, Strain/Indicator: TA100, Metabolic Activation: NONE, Method: PREINCUBATION
  mutagenic call: inactive; negative
Test System: AMES SALMONELLA TYPHIMURIUM, Strain/Indicator: TA100, Metabolic Activation: RAT, LIVER, S-9, AROCLOR 1254 (10%), Method: PREINCUBATION
  mutagenic call: inactive; negative
Test System: AMES SALMONELLA TYPHIMURIUM, Strain/Indicator: TA1535, Metabolic Activation: HAMSTER, LIVER, S-9, AROCLOR 1254 (10%), Method: PREINCUBATION
  mutagenic call: inactive; negative
[2]
  mutagenic call: inactive; negative
Test System: AMES SALMONELLA TYPHIMURIUM, Strain/Indicator: TA1535, Metabolic Activation: RAT, LIVER, S-9, AROCLOR 1254 (10%), Method: PREINCUBATION
  mutagenic call: inactive; negative

## [Cl][Ni][Cl]
End Point: IN VITRO MICRONUCLEUS, Test System: CHL/IU CELLS, Metabolic Activation: NONE
  mutagenic call: active; positive
Test System: AMES SALMONELLA TYPHIMURIUM, Strain/Indicator: TA102, Metabolic Activation: NONE, Method: PREINCUBATION
  mutagenic call: inactive; negative
[2]
  mutagenic call: inactive; negative
[3]
  mutagenic call: inactive; negative
Test System: AMES SALMONELLA TYPHIMURIUM, Strain/Indicator: TA1975, Metabolic Activation: NONE, Method: PREINCUBATION
  mutagenic call: inactive; negative
Test System: AMES SALMONELLA TYPHIMURIUM, Strain/Indicator: TA1978, Metabolic Activation: NONE, Method: PREINCUBATION
  mutagenic call: inactive; negative
Test System: CHINESE HAMSTER G10, Strain/Indicator: G10 (GPT)/6-THIOGUANINE, Metabolic Activation: NONE
  mutagenic call: active; positive
Test System: CHINESE HAMSTER G10, Strain/Indicator: G10/6-THIOGUANINE, Metabolic Activation: NONE
  mutagenic call: active; positive
Test System: CHINESE HAMSTER G12, Strain/Indicator: G12 (GPT)/6-THIOGUANINE, Metabolic Activation: NONE
  mutagenic call: active; positive
Test System: CHINESE HAMSTER G12, Strain/Indicator: G12/6-THIOGUANINE, Metabolic Activation: NONE
  mutagenic call: active; positive
Test System: CHINESE HAMSTER V-79, Strain/Indicator: SP5 V-79 (HPRT)/6-THIOGUANINE, Metabolic Activation: NONE, Method: STANDARD PLATE
  mutagenic call: inactive; negative
Test System: CHINESE HAMSTER V-79, Strain/Indicator: SPD8 V-79 (HPRT)/6-THIOGUANINE, Metabolic Activation: NONE, Method: STANDARD PLATE
  mutagenic call: active; positive
Test System: E. COLI, Strain/Indicator: WP2 UVRA, Metabolic Activation: NONE, Method: SPOT TEST
  mutagenic call: active; positive
Test System: E. COLI, Strain/Indicator: WP2 UVRA, Metabolic Activation: NONE, Method: STANDARD PLATE
  mutagenic call: active; positive
Test System: UDS HUMAN AMNION FL CELL LINE, Strain/Indicator: THY INCORP, Metabolic Activation: NONE, Method: LIQUID SCINTILLATION COUNTING
  mutagenic call: active; positive

## c1ccc2c(c1)ccc1cc3ccc4ccncc4c3cc12
[4]
  mutagenic call: inactive; negative
Test System: AMES SALMONELLA TYPHIMURIUM, Strain/Indicator: TA98, Metabolic Activation: RAT, LIVER, S-9, AROCLOR 1254 (10%), Method: STANDARD PLATE
  mutagenic call: active; positive
[5]
  mutagenic call: active; positive
[1]
  mutagenic call: inactive; negative
Test System: AMES SALMONELLA TYPHIMURIUM, Strain/Indicator: TA100, Metabolic Activation: RAT, LIVER, S-9, AROCLOR 1254 (10%), Method: STANDARD PLATE
  mutagenic call: active; positive
[6]
  mutagenic call: active; positive

## C[n+]1c2ccccc2cc2ccccc21
[2]
  mutagenic call: inactive; negative
Test System: AMES SALMONELLA TYPHIMURIUM, Strain/Indicator: TA1535, Metabolic Activation: RAT, LIVER, S-9, TETRACHLOROBIPHENYL, Method: PREINCUBATION
  mutagenic call: inactive; negative
Test System: AMES SALMONELLA TYPHIMURIUM, Strain/Indicator: TA1537, Metabolic Activation: NONE, Method: PREINCUBATION
  mutagenic call: inactive; negative
Test System: AMES SALMONELLA TYPHIMURIUM, Strain/Indicator: TA1537, Metabolic Activation: RAT, LIVER, S-9, TETRACHLOROBIPHENYL, Method: PREINCUBATION
  mutagenic call: active; positive
[3]
  mutagenic call: inactive; negative
Test System: AMES SALMONELLA TYPHIMURIUM, Strain/Indicator: TA1538, Metabolic Activation: RAT, LIVER, S-9, TETRACHLOROBIPHENYL, Method: PREINCUBATION
  mutagenic call: active; positive
Test System: AMES SALMONELLA TYPHIMURIUM, Strain/Indicator: TA1978, Metabolic Activation: RAT, LIVER, S-9, TETRACHLOROBIPHENYL, Method: PREINCUBATION
  mutagenic call: inactive; negative

## Cn1cnc([N+](=O)[O-])c1-c1ccccc1
[1]
  mutagenic call: inactive; negative

## O=[N+]([O-])c1ccc2c3cccc4cccc(c5c([N+](=O)[O-])ccc1c25)c43
Test System: AMES SALMONELLA TYPHIMURIUM, Strain/Indicator: TA98(1,8-DNP6), Metabolic Activation: NONE, Method: STANDARD PLATE
  mutagenic call: active; positive
Test System: AMES SALMONELLA TYPHIMURIUM, Strain/Indicator: TA98(NR), Metabolic Activation: NONE, Method: STANDARD PLATE
  mutagenic call: active; positive
[4]
  mutagenic call: active; positive
Test System: AMES SALMONELLA TYPHIMURIUM, Strain/Indicator: TA98, Metabolic Activation: NONE, Method: STANDARD PLATE (ANAEROBIC)
  mutagenic call: active; positive
[5]
  mutagenic call: active; positive
[1]
  mutagenic call: inactive; negative
[6]
  mutagenic call: active; positive

## Cc1ccc(CCl)cc1
[1]
  mutagenic call: inactive; negative
